Experimental data from patent US12310364B2, “Safened compositions comprising pyridine carboxylate herbicides and cloquintocet” (Corteva Agriscience LLC, priority 2018, dated 2025).

Columns and labels:
[1] = test system: Matricaria chamomilla (wild chamomile), MATCH; assay: Greenhouse postemergence trial, visual injury on wild chamomile; type: in vivo; settings: herbicide alone 20 g/ha
Experimental: Greenhouse Trial Methodology-Evaluation of Postemergence Herbicidal […] in Crops […] When required to ensure good germination and healthy plants, a fungicide treatment and/or other chemical or physical treatment was applied. The plants were grown for 7-36 days (d) in a greenhouse with an approximate 14-hour (h) photoperiod which was maintained at about 23° C. during the day and 22° C. during the night. Nutrients and water were added on a regular basis and supplemental lighting was provided with overhead metal halide 1000-Watt lamps as necessary. The plants were employed for testing when they reached the second or third true leaf stage. Emulsifiable concentrates of each of each pyridine carboxylate herbicide (Compound A or Compound B) were prepared at 100 grams acid equivalent per liter (g ae/L). […] The concentrated stock solutions were further diluted with an aqueous mixture of 1.25% […] or MSO® Concentrate with LECI-TECH® to obtain stock solutions at reduced application rates for each herbicide. Spray solutions of the herbicide combinations (Compound A or Compound B plus safener) were prepared by adding weighed amounts or aliquots of the safener to the stock solutions of Compound A or Compound B to form 12-mL spray solutions in two-way combinations. […] Control plants were sprayed in the same manner with the solvent blank. All herbicide (component a) application rates are given as “g ae/ha” and all safener (component b) application rates are given as “g ai/ha.” The treated plants and control plants were placed in a greenhouse as described above and watered by sub-irrigation to prevent wash-off of the test compounds.

[2] = test system: Fagopyrum esculentum (common buckwheat), FAGES; assay: Greenhouse postemergence trial, visual injury on common buckwheat; type: in vivo
Description: Greenhouse Trial Methodology—Evaluation of Postemergence Herbicidal Safening in Crops
Seeds of the desired test plant species were planted in a 90:10% v/v (volume/volume) mixture of PRO-MIX® BX (Premier Tech Horticulture, Quakertown, PA, USA) and PROFILE® GREENS GRADE™ (Profile Products LLC, Buffalo Grove, IL, USA) planting mixture, which typically has a pH of 5.2 to 6.2 and an organic matter content of at least 50 percent, in plastic pots with a surface area of 103.2 square centimeters (cm^2). When required to ensure good germination and healthy plants, a fungicide treatment and/or other chemical or physical treatment was applied. The plants were grown for 7-36 days (d) in a greenhouse with an approximate 14-hour (h) photoperiod which was maintained at about 23° C. during the day and 22° C. during the night. Nutrients and water were added on a regular basis and supplemental lighting was provided with overhead metal halide 1000-Watt lamps as necessary. The plants were employed for testing when they reached the second or third true leaf stage.
Emulsifiable concentrates of each of each pyridine carboxylate herbicide (Compound A or Compound B) were prepared at 100 grams acid equivalent per liter (g ae/L). An aliquot of each emulsifiable concentrate was placed in a 25 mL glass vial and diluted with an aqueous mixture of 1.25% (v/v) ACTIROB® B esterified rapeseed oil (Bayer Crop Science, Research Triangle Park, NC, USA) or MSO® Concentrate with LECI-TECH® methylated soybean oil (Loveland Products, Loveland, CO, USA) to obtain concentrated stock solutions at the highest application rate for each herbicide, based upon a 12 milliliter (mL) application volume at a rate of 187 liters per hectare (L/ha). The concentrated stock solutions were further diluted with an aqueous mixture of 1.25% v/v ACTIROB® B or MSO® Concentrate with LECI-TECH® to obtain stock solutions at reduced application rates for each herbicide. Spray solutions of the herbicide combinations (Compound A or Compound B plus safener) were prepared by adding weighed amounts or aliquots of the safener to the stock solutions of Compound A or Compound B to form 12-mL spray solutions in two-way combinations.
The spray solutions were applied to the plant material with an overhead Mandel track sprayer equipped with 8002E nozzles calibrated to deliver 187 L/ha over an application area of 0.503 square meters (m^2) at a spray height of 18 inches (43 centimeters (cm)) above the average plant canopy. Control plants were sprayed in the same manner with the solvent blank. All herbicide (component a) application rates are given as “g ae/ha” and all safener (component b) application rates are given as “g ai/ha.”
The treated plants and control plants were placed in a greenhouse as described above and watered by sub-irrigation to prevent wash-off of the test compounds. After 20-22 d, the condition of the test plants as compared with that of the control plants was determined visually and scored on a scale of 0 to 100 percent where 0 corresponds to no injury and 100 corresponds to complete kill.

| SMILES | % visual injury, Ob [1] | % visual injury, Ob ([2]; safener alone 5 g/ha) | % visual injury, Ob ([2]; safener alone 10 g/ha) | % visual injury, Ob ([2]; safener alone 20 g/ha) | % visual injury, Ob ([2]; safener alone 40 g/ha) |
| --- | --- | --- | --- | --- | --- |
| N#CCOC(=O)c1nc(-c2ccc3cc[nH]c3c2F)c(F)c(N)c1Cl [Compound A, cyanomethyl 4-amino-3-chloro-5-fluoro-6-(7-fluoro-1H-indol-6-yl)pyridine-2-carboxylate] | 50% | – | – | – | – |
| CCCCCC(C)OC(=O)COc1ccc(Cl)c2cccnc12 (centres unmarked) [CQC-mexyl, cloquintocet-mexyl] | – | 0% | 0% | 0% | 0% |
